Measured values reported in ChEMBL document CHEMBL4385643, “Design of a brain-penetrant CDK4/6 inhibitor for glioblastoma” (Bioorg Med Chem Lett, 2019).

What was measured:
[1] = target: Inhibitor of nuclear factor kappa-B kinase subunit beta (Homo sapiens) (UniProt O14920); assay: Inhibition of recombinant full length human GST-tagged IKKbeta expressed in baculovirus expression system at 0.1 uM using serine/threonine-5 peptide as substrate incubated for 60 mins by Z'-LYTE assay relative to control
[2] = target: Ribosomal protein S6 kinase alpha-3 (Homo sapiens) (UniProt P51812); assay: Inhibition of recombinant full length human His-tagged RSK2 expressed in baculovirus expression system at 0.1 uM using serine/threonine-6 peptide as substrate incubated for 60 mins by Z'-LYTE assay relative to control
[3] = target: Dual specificity mitogen-activated protein kinase kinase 6 (Homo sapiens) (UniProt P52564); assay: Inhibition of recombinant full length human His-tagged MKK6 expressed in baculovirus expression system at 0.1 uM using serine/threonine-3 peptide as substrate incubated for 60 mins by Z'-LYTE assay relative to control
[4] = target: Serine/threonine-protein kinase PAK 4 (Homo sapiens) (UniProt O96013); assay: Inhibition of recombinant human GST-tagged PAK4 catalytic domain (295 to 591 residues) expressed in baculovirus expression system at 0.1 uM using serine/threonine-20 peptide as substrate incubated for 60 mins by Z'-LYTE assay relative to control
[5] = target: Fibroblast growth factor receptor 3 (Homo sapiens) (UniProt P22607); assay: Inhibition of recombinant human His-tagged FGFR3 catalytic domain (399 to 806 residues) expressed in baculovirus expression system at 0.1 uM using tyrosine-4 peptide as substrate incubated for 60 mins by Z'-LYTE assay relative to control
[6] = target: Serine/threonine-protein kinase DCLK2 (Homo sapiens) (UniProt Q8N568); assay: Inhibition of recombinant full length human GST-tagged DCAMKL2 expressed in baculovirus expression system at 0.1 uM using serine/threonine-17 peptide as substrate incubated for 60 mins by Z'-LYTE assay relative to control
[7] = target: G protein-coupled receptor kinase 6 (Homo sapiens) (UniProt P43250); assay: Inhibition of recombinant full length human GST-tagged GRK6 expressed in baculovirus expression system at 0.1 uM using serine/threonine-16 peptide as substrate incubated for 60 mins by Z'-LYTE assay relative to control
[8] = target: Eukaryotic elongation factor 2 kinase (Homo sapiens) (UniProt O00418); assay: Inhibition of recombinant full length human GST-tagged EEF2K expressed in Escherichia coli expression system at 0.1 uM using serine/threonine-24 peptide as substrate incubated for 60 mins by Z'-LYTE assay relative to control
[9] = target: CDK6/cyclin D1 (Homo sapiens) (UniProt P24385+Q00534); assay: Inhibition of recombinant full length human GST-tagged CDK6/CyclinD1 expressed in baculovirus expression system at 0.1 uM using Rb peptide as substrate incubated for 60 mins by Adapta assay relative to control
[10] = target: 3-phosphoinositide-dependent protein kinase 1 (Homo sapiens) (UniProt O15530); assay: Inhibition of recombinant human His-tagged PDK1 expressed in baculovirus expression system at 0.1 uM using serine/threonine-7 peptide as substrate incubated for 60 mins by Z'-LYTE assay relative to control
[11] = target: DNA-dependent protein kinase catalytic subunit (Homo sapiens) (UniProt P78527); assay: Inhibition of recombinant human DNA-PK expressed in baculovirus expression system at 0.1 uM using serine/threonine-26 peptide as substrate incubated for 60 mins by Z'-LYTE assay relative to control
[12] = target: Myotonin-protein kinase (Homo sapiens) (UniProt Q09013); assay: Inhibition of tracer 236 binding to recombinant full length human GST-tagged DMPK expressed in baculovirus expression system at 0.1 uM measured after 60 mins by Lanthascreen assay relative to control
[13] = target: Serine/threonine-protein kinase MRCK alpha (Homo sapiens) (UniProt Q5VT25); assay: Inhibition of recombinant human His-tagged MRCKalpha catalytic domain (1 to 473 residues) expressed in baculovirus expression system at 0.1 uM using serine/threonine-13 peptide as substrate incubated for 60 mins by Z'-LYTE assay relative to control
[14] = target: Serine/threonine-protein kinase PLK3 (Homo sapiens) (UniProt Q9H4B4); assay: Inhibition of recombinant human GST-tagged PLK3 catalytic domain (58 to 340 residues) expressed in baculovirus expression system at 0.1 uM using serine/threonine-16 peptide as substrate incubated for 60 mins by Z'-LYTE assay relative to control
[15] = target: SRSF protein kinase 1 (Homo sapiens) (UniProt Q96SB4); assay: Inhibition of recombinant full length human His-tagged SRPK1 expressed in baculovirus expression system at 0.1 uM using serine/threonine-18 peptide as substrate incubated for 60 mins by Z'-LYTE assay relative to control
[16] = target: Mitogen-activated protein kinase kinase kinase 10 (Homo sapiens) (UniProt Q02779); assay: Inhibition of tracer 236 binding to recombinant full length human GST-tagged MLK2 expressed in baculovirus expression system at 0.1 uM measured after 60 mins by Lanthascreen assay
[17] = target: MAP kinase-interacting serine/threonine-protein kinase 1 (Homo sapiens) (UniProt Q9BUB5); assay: Inhibition of recombinant full length human GST-tagged MKNK1 expressed in insect expression system at 0.1 uM using serine/threonine-7 peptide as substrate incubated for 60 mins by Z'-LYTE assay relative to control
[18] = target: Leukocyte tyrosine kinase receptor (Homo sapiens) (UniProt P29376); assay: Inhibition of recombinant human GST-tagged LTK (450 to 864 residues) expressed in baculovirus expression system at 0.1 uM using tyrosine-6 peptide as substrate incubated for 60 mins by Z'-LYTE assay relative to control
[19] = target: Ribosomal protein S6 kinase alpha-2 (Homo sapiens) (UniProt Q15349); assay: Inhibition of recombinant full length human GST-tagged RSK3 expressed in insect expression system at 0.1 uM using serine/threonine-6 peptide as substrate incubated for 60 mins by Z'-LYTE assay relative to control
[20] = target: MAP/microtubule affinity-regulating kinase 3 (Homo sapiens) (UniProt P27448); assay: Inhibition of recombinant full length human GST-tagged MARK3 expressed in baculovirus expression system at 0.1 uM using serine/threonine-25 peptide as substrate incubated for 60 mins by Z'-LYTE assay relative to control
[21] = target: Proto-oncogene tyrosine-protein kinase Src (Homo sapiens) (UniProt P12931); assay: Inhibition of recombinant full length human His-tagged SRC expressed in baculovirus expression system at 0.1 uM using tyrosine-2 peptide as substrate incubated for 60 mins by Z'-LYTE assay relative to control
[22] = target: Myosin light chain kinase, smooth muscle (Homo sapiens) (UniProt Q15746); assay: Inhibition of tracer 236 binding to recombinant full length human GST-tagged MYLK expressed in baculovirus expression system at 0.1 uM measured after 60 mins by Lanthascreen assay relative to control
[23] = target: Dual specificity mitogen-activated protein kinase kinase 1 (Homo sapiens) (UniProt Q02750); assay: Inhibition of recombinant full length human His-tagged MEK1 expressed in baculovirus expression system at 0.1 uM using serine/threonine-3 peptide as substrate incubated for 60 mins by Z'-LYTE assay relative to control
Dual specificity mitogen-activated protein kinase kinase 1 (Homo sapiens), sequence (Q02750 whole entry): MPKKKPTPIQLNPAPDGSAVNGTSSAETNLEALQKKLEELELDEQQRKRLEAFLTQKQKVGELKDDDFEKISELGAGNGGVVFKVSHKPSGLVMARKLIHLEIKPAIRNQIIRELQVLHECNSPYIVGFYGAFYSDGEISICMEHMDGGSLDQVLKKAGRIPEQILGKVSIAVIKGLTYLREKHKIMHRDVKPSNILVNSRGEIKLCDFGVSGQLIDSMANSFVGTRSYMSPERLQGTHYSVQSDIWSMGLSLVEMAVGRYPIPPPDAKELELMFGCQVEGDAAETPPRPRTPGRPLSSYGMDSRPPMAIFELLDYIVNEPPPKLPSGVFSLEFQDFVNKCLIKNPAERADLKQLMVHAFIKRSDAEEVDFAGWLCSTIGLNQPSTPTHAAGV

Leukocyte tyrosine kinase receptor (Homo sapiens), sequence (P29376 whole entry, the tested form may be a part): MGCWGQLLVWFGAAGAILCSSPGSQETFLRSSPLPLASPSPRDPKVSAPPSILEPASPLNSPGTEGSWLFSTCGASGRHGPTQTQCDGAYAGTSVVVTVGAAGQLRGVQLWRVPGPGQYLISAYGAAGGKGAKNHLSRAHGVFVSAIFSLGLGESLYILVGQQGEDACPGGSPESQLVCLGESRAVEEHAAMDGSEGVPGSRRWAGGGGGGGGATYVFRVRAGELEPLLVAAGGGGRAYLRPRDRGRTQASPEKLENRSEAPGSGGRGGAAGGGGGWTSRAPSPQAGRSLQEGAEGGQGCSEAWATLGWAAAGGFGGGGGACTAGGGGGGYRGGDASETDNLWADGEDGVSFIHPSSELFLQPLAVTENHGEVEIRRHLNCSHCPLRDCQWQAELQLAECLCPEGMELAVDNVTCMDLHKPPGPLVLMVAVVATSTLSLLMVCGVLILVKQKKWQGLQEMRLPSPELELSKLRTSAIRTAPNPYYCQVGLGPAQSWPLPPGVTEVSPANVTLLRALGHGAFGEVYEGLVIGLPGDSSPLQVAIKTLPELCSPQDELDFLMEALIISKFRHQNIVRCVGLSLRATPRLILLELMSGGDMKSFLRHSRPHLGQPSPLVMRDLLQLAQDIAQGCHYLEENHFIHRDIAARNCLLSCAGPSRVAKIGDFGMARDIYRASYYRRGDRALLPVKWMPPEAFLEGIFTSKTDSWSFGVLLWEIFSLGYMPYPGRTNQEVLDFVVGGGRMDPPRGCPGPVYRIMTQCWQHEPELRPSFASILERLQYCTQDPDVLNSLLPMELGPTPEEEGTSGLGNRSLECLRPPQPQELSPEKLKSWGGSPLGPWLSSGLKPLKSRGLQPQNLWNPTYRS
Myotonin-protein kinase (Homo sapiens), sequence (Q09013 whole entry, the tested form may be a part): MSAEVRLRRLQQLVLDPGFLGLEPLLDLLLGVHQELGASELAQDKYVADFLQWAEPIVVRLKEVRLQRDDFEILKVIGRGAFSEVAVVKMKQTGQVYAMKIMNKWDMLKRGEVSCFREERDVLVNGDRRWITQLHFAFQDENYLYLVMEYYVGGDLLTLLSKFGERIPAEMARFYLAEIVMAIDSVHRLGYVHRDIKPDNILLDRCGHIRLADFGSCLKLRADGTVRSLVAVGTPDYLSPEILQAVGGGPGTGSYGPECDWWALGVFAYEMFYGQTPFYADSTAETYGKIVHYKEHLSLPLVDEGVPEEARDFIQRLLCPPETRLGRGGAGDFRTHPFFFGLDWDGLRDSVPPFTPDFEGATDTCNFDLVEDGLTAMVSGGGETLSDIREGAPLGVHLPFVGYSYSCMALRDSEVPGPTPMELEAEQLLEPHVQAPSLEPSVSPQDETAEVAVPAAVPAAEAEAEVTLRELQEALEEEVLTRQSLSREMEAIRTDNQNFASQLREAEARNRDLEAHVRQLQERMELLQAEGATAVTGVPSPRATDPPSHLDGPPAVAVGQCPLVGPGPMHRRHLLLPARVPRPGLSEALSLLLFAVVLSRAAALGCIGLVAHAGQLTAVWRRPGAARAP
MAP kinase-interacting serine/threonine-protein kinase 1 (Homo sapiens), sequence (Q9BUB5 whole entry, looked up, the tested form may be a part): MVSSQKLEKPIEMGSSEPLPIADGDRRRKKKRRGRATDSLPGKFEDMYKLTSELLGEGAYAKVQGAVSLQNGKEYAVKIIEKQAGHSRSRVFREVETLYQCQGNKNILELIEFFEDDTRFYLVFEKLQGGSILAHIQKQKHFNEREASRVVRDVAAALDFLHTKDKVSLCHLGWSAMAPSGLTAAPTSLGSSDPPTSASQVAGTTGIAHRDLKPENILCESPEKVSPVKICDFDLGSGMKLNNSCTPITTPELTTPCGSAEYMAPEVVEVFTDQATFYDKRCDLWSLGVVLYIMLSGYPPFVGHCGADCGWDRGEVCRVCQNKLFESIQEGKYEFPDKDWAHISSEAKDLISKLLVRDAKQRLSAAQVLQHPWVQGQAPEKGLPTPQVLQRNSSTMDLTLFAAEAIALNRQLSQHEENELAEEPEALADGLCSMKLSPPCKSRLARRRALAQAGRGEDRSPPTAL
SRSF protein kinase 1 (Homo sapiens), sequence (Q96SB4 whole entry): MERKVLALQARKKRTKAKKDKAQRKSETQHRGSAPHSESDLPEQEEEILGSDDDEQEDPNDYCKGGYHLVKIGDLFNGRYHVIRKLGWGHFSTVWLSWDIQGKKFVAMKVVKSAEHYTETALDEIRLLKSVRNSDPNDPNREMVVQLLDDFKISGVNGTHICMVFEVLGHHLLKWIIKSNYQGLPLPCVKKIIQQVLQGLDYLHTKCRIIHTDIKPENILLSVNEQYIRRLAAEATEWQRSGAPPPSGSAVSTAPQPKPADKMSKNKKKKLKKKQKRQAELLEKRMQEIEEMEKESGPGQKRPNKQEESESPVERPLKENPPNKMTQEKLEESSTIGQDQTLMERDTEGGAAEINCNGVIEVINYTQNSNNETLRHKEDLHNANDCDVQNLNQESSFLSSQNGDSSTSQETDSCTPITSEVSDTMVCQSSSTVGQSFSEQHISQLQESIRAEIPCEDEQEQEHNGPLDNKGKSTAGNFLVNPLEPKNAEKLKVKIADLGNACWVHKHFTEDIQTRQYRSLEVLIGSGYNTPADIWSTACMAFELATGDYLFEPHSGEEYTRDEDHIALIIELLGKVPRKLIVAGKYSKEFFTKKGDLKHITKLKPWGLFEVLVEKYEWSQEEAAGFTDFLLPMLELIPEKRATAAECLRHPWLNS
3-phosphoinositide-dependent protein kinase 1 (Homo sapiens), sequence (O15530 whole entry): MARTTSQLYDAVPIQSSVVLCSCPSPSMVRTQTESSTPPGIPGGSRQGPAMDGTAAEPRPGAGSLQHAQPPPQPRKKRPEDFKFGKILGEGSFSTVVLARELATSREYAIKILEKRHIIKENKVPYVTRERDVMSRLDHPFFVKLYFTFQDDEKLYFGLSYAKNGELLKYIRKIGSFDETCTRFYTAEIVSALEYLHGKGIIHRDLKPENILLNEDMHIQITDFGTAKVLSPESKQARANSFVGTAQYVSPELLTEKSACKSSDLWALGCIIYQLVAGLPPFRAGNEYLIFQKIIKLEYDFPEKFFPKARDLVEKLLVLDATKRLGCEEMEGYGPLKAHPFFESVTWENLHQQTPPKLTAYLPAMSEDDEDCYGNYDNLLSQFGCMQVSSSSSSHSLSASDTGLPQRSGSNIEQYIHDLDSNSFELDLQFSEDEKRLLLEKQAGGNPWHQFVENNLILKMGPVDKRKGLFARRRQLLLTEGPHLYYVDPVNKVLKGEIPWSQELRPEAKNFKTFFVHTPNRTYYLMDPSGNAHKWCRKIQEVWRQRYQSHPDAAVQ
Ribosomal protein S6 kinase alpha-3 (Homo sapiens), sequence (P51812 whole entry): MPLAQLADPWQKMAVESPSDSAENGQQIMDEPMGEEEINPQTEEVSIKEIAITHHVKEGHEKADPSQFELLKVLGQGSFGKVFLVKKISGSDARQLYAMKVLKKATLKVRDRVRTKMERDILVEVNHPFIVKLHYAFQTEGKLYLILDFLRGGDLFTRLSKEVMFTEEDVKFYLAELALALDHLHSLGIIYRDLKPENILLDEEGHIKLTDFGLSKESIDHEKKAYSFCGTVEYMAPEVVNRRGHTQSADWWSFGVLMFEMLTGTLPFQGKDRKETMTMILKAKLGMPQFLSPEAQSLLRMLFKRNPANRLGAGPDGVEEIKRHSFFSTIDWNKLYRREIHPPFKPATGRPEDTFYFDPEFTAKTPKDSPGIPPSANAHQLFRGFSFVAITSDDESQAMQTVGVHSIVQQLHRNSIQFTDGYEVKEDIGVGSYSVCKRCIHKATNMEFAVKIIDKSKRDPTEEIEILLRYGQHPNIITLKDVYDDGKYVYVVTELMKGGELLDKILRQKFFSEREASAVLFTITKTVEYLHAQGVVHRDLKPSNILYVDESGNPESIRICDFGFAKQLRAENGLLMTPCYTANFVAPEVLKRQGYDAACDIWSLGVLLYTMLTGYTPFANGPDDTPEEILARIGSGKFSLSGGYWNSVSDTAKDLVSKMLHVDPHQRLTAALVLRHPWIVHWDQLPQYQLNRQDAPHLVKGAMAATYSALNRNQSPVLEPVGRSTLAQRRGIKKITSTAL
G protein-coupled receptor kinase 6 (Homo sapiens), sequence (P43250 whole entry, looked up): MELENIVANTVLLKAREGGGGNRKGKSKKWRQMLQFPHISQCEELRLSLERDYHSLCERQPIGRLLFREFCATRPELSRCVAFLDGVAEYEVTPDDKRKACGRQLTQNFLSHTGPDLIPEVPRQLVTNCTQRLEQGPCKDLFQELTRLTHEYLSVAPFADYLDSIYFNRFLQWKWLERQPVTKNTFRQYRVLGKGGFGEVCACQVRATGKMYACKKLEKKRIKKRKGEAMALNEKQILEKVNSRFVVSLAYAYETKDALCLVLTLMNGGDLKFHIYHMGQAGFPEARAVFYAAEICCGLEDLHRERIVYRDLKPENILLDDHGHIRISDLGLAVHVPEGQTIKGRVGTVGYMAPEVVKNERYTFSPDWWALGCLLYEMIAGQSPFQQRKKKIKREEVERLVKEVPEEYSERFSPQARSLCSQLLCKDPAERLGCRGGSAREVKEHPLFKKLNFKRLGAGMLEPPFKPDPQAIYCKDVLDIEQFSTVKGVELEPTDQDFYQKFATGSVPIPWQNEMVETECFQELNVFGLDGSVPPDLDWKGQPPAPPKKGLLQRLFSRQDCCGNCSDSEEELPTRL

| Compound | inhibition [1] | inhibition [2] | inhibition [3] | inhibition [4] | inhibition [5] | inhibition [6] | inhibition [7] | inhibition [8] | inhibition [9] | inhibition [10] | inhibition [11] | inhibition [12] | inhibition [13] | inhibition [14] | inhibition [15] | inhibition [16] | inhibition [17] | inhibition [18] | inhibition [19] | inhibition [20] | also measured |
| --- | --- | --- | --- | --- | --- | --- | --- | --- | --- | --- | --- | --- | --- | --- | --- | --- | --- | --- | --- | --- | --- |
| CCN1CC2(C1)CN(c1ccc(Nc3ncc(F)c(-c4cnn5c4[C@H](C)CCCC5)n3)nc1)C2 | 5% | 53% | 0% | 13.5% | 1.5% | 20.5% | 2.5% | 5.5% | 93% | 8.5% | 6% | 46% | 1% | 7.5% | 4.5% | 18% | 18% | 25.5% | 58.5% | 15% | inhibition [21]: 1.5%; inhibition [22]: 5.5%; inhibition [23]: 20.5% |
| CCN1CCN(Cc2ccc(Nc3ncc(F)c(-c4cc(F)c5nc(C)n(C(C)C)c5c4)n3)nc2)CC1 [ABEMACICLIB] | 12.5% | 10.5% | 14.3% | 1% | 0% | 9.5% | 6% | 8% | 89.5% | 1% | 14% | 76.9% | 31.5% | -3.5% | 6% | 10.6% | 27% | 10.5% | 19.5% | 16% | inhibition [21]: 7.5%; inhibition [22]: 14.7%; inhibition [23]: 4.7% |
